This note sets out measurements from US10604487B2, “Pyridinol derivative or pharmaceutically acceptable salt thereof, and pharmaceutical composition containing same as active ingredient” (Research Cooperation Foundation of Yeungnam University, priority 2016, dated 2020).

Molecules are shown by their SMILES. Like-named read-outs stand apart in the source and are kept apart here.

Usually viability stands for a read-out of living cells in per cent, often relative to untreated cells. The IC50 is the point on the concentration scale where inhibition reaches its midpoint.

Data set [1] has as its system TNF-α-induced adhesion of monocytes to intestinal epithelial cells. As to the kind of experiment: Inhibitory activity against TNF-α-induced adhesion of monocytes (U937) to intestinal epithelial cells (HT-29). It is filed as cell-based, human. As to conditions: Homo sapiens. How it is done: HT-29 human colorectal cancer-derived epithelial cells and U937 human-derived monocytic cells were cultured in an RPMI 1640 medium containing 10% FBS and 1% penicillin/streptomycin (PS) at 37° C. under a condition of 5% CO2, and when the cells were grown to 80% or more in a culture flask, they were subcultured in a ratio of 1:3 to be used in this test. The HT-29 cells were cultured in a 24-well plate at a concentration of 2×10^5 cells/cm2, and then the medium only containing 1% FBS and 1% PS was pretreated with a test drug for 1 hour. Afterward, BCECF-loaded U937 cells by being treated with 10 μg/mL of BCECF-AM at 37° C. for 30 minutes and 10 ng/mL of TNF-α reacted with the HT-29 cells previously treated with the test drug at 37° C. for 3 hours. After the reaction, the medium was removed, and then the cells were washed with PBS twice to remove U937 cells that were not adhered. In a subsequent step, for cell lysis, 0.1% Triton X-100 (0.1 M Tris) was treated to allow a reaction at room temperature for 30 minutes, and then fluorescence was measured using a Fluostar optima microplate reader (BMG LABTECH, Germany) to quantify the cells (Carvalho et al., 1996; Thapa et al., 2008).

A short description of data set [2]: Cytotoxicity test (MTT), HT-29. The following applies: human, HT-29, 48 h; for viability at 48 h, 0.01 µM / viability at 48 h, 0.1 µM / viability at 48 h, 1 µM / viability at 48 h, 10 µM / viability at 48 h, 100 µM: HT-29 cells (colorectal cancer cell line), read-out: Cell viability (% of control); for IC50 at 48 h: HT-29 cells, read-out: IC50 (μM), cytotoxicity. It is filed as cell-based. As for the experimental part: (§1) The human colorectal cancer cell line HT-29 and the monocytic blood cancer-derived cell line U937 were cultured in a RPMI 1640 medium containing 10% FBS and 1% penicillin/streptomycin (PS) at 37° C. under a condition of 5% CO2, and when the cells used herein were grown to 80% or more, they were subcultured at a ratio of 1:3.
(§2) Each type of cells were cultured in a 96 well plate at a concentration of 1×10^5 cells/cm2, treated with a test compound by concentration in a medium only containing 1% FBS and 1% PS at 37° C. under a condition of 5% CO2 for 48 hours and reacted with 5 mg/mL of a 3-[4,5-dimethylthiazol-2-yl]-2,5-diphenyltetrazolium bromide (MTT) reagent for 4 hours, and then the medium was completely removed, the cells were treated with DMSO, formazan crystals were dissolved for 30 minutes, and then absorbance was measured at 540 nm.

Data set [3] can be described thus: Cytotoxicity test (MTT), U937. The class given is cell-based. The following applies: human, U937, 48 h; for viability at 48 h, 0.01 µM / viability at 48 h, 0.1 µM / viability at 48 h, 1 µM / viability at 48 h, 10 µM / viability at 48 h, 100 µM: U937 cells (monocytic blood cancer-derived cell line), read-out: Cell viability (% of control); for IC50 at 48 h: U937 cells. As for the experimental part:
as §1, §2

Setting [4] is: 1 μM test drug, HT-29/U937 adhesion, 10 ng/mL TNF-α, read-out: Inhibitory activity (%).

With `COc1c(C)nc(NC(=S)Nc2ccc(Cl)c(Cl)c2)c(C)c1C` [Compound 17-8b, 1-(3,4-dichlorophenyl)-3-(5-methoxy-3,4,6-trimethylpyridin-2-yl)thiourea], the inhibition at 1 µM in data set [1] (setting [4]) was 39.5%.
Turning to `Cc1nc(NC(=O)Nc2ccc(C(C)C)cc2)c(C)c(C)c1O` [Compound 16-15, 1-(5-hydroxy-3,4,6-trimethylpyridin-2-yl)-3-(4-isopropylphenyl)urea], in data set [1] (setting [4]), the inhibition at 1 µM was 11.5%.
The same measure, in the same setting: the value for `Cc1nc(NC(=S)Nc2cccc(C(F)(F)F)c2)c(C)c(C)c1O[Si](c1ccccc1)(c1ccccc1)C(C)(C)C` [Compound 17-9c, 1-(5-((tert-Butyldiphenylsilyl)oxy)-3,4,6-trimethylpyridin-2-yl)-3-(3-(trifluoromethyl)phenyl)thiourea] was 25.9%; that for `Cc1nc(OCCC(C)C)c(C)c(C)c1O` [Compound 28-4, 6-isopentyloxy-2,4,5-trimethylpyridin-3-ol] was 33.2%.
`COc1c(C)nc(NC(=S)Nc2cccc(C(F)(F)F)c2)c(C)c1C` [Compound 17-9b, 1-(5-Methoxy-3,4,6-trimethylpyridin-2-yl)-3-(3-(trifluoromethyl)phenyl)thiourea]: in data set [1] (setting [4]), the inhibition at 1 µM stood at 39%.
Still for that read-out and setting: the value for `Cc1nc(NC(=O)Nc2ccc(F)cc2)c(C)c(C)c1O` [Compound 16-7, 1-(4-Fluorophenyl)-3-(5-hydroxy-3,4,6-trimethylpyridin-2-yl)urea] was 14.6%; that for `Cc1nc(OCCCc2ccccc2)c(C)c(C)c1O` [Compound 28-6, 2,4,5-Trimethyl-6-(3-phenylpropoxy)pyridin-3-ol] was ≥ 50%.
Still for that read-out and setting: the figure for `Cc1nc(NC(=S)Nc2ccc(Cl)c(Cl)c2)c(C)c(C)c1O[Si](c1ccccc1)(c1ccccc1)C(C)(C)C` [Compound 17-8c, 1-(5-((tert-butyldiphenylsilyl)oxy)-3,4,6-trimethylpyridin-2-yl)-3-(3,4-dichlorophenyl)thiourea] is 18.8%.
Same read-out and setting: the figure for `Cc1nc(NC(=O)Nc2ccc(C(F)(F)F)cc2)c(C)c(C)c1O` [Compound 16-11, 1-(5-hydroxy-3,4,6-trimethylpyridin-2-yl)-3-(4-(trifluoromethyl)phenyl)urea] is 52.7%.
For `COc1cccc2c1C(=O)c1c(O)c3c(c(O)c1C2=O)C[C@@](O)(C(=O)CO)C[C@@H]3O[C@H]1C[C@H](N)[C@H](O)[C@H](C)O1` [Doxorubicin, reference compound], in data set [2], the viability at 48 h, 0.01 µM worked out at 69.9 ± 1.1%; the viability at 48 h, 0.1 µM was determined as 66.9 ± 3.3%; the viability at 48 h, 1 µM came to 58.2 ± 6.4%; the viability at 48 h, 10 µM came out at 53.2 ± 5.1%. In data set [2], the viability at 48 h, 100 µM stood at 35.7 ± 2% and the 50% inhibitory concentration (IC50) at 48 h was determined as 12.9 µM. In addition, in data set [3], the viability at 48 h, 0.01 µM came to 93.6 ± 1.8%; the viability at 48 h, 0.1 µM came to 91.4 ± 3.3%; the viability at 48 h, 1 µM was determined as 42.2 ± 1.3%; the viability at 48 h, 10 µM was 38.3 ± 0.6%. For the same molecule, in data set [3], the viability at 48 h, 100 µM worked out at 33.2 ± 1.3% and the midpoint of inhibition, the IC50 at 48 h, lay at 0.6 µM.
As for `COc1ccc(NC(=S)Nc2nc(C)c(O)c(C)c2C)cc1` [Compound 18-12, 1-(5-Hydroxy-3,4,6-trimethylpyridin-2-yl)-3-(4-methoxyphenyl)thiourea], in data set [1] (setting [4]), the inhibition at 1 µM was 13.3%.
Still for that read-out and setting: the figure for `Cc1nc(NC(=S)Nc2ccc(Cl)c(Cl)c2)c(C)c(C)c1OCc1ccccc1` [Compound 17-8a, 1-(5-benzyloxy-3,4,6-trimethylpyridin-2-yl)-3-(3,4-dichlorophenyl)thiourea] is 17.3%.
The same measure, in the same setting: the figure for `Cc1nc(NC(=O)NCc2ccccc2)c(C)c(C)c1O` [Compound 16-14, 1-benzyl-3-(5-hydroxy-3,4,6-trimethylpyridin-2-yl)urea] is 4.9%; for `Cc1nc(NC(=O)NC(=O)c2ccccc2)c(C)c(C)c1O` [Compound 16-16, N-((5-hydroxy-3,4,6-trimethylpyridin-2-yl)carbamoyl)benzamide] it is 34.2%; for `COc1ccc(NC(=S)Nc2nc(C)c(O[Si](c3ccccc3)(c3ccccc3)C(C)(C)C)c(C)c2C)cc1` [Compound 17-12c, 1-(5-((tert-Butyldiphenylsilyl)oxy)-3,4,6-trimethylpyridin-2-yl)-3-(4-methoxyphenyl)thiourea] it is 16%.
As for `Cc1nc(NC(=S)Nc2cccc(C(F)(F)F)c2)c(C)c(C)c1OCc1ccccc1` [Compound 17-9a, 1-(5-benzyloxy-3,4,6-trimethylpyridin-2-yl)-3-(3-(trifluoromethyl)phenyl)thiourea], the inhibition at 1 µM in data set [1] (setting [4]) was determined as 19.6%.
The same measure, in the same setting: the figure for `Cc1nc(NC(=O)Nc2ccc(OC(F)(F)F)cc2)c(C)c(C)c1O` [Compound 16-13, 1-(5-hydroxy-3,4,6-trimethylpyridin-2-yl)-3-(4-(trifluoromethoxy)phenyl)urea] is 12.6%.
The same measure, in the same setting: the figure for `Cc1ccc(NC(=O)Nc2nc(C)c(O)c(C)c2C)cc1` [Compound 16-9, 1-(5-hydroxy-3,4,6-trimethylpyridin-2-yl)-3-(p-tolyl)urea] is 20.1%; for `COc1ccc(NC(=O)Nc2nc(C)c(O)c(C)c2C)cc1` [Compound 16-10, 1-(5-Hydroxy-3,4,6-trimethylpyridin-2-yl)-3-(4-methoxyphenyl)urea] it is 12.6%; for `CCCCOc1nc(C)c(O)c(C)c1C` [Compound 28-2, 6-butoxy-2,4,5-trimethylpyridin-3-ol] it is 48.2%.
Consider `Cc1nc(NC(=S)Nc2ccc(Br)cc2)c(C)c(C)c1O` [Compound 18-7, 1-(4-bromophenyl)-3-(5-hydroxy-3,4,6-trimethylpyridin-2-yl)thiourea], for which the inhibition at 1 µM in data set [1] (setting [4]) is 27.8%.
Take `Cc1nc(NC(=O)Nc2ccc(Br)cc2)c(C)c(C)c1O` [Compound 16-8, 1-(4-Bromophenyl)-3-(5-hydroxy-3,4,6-trimethylpyridin-2-yl)urea]: the inhibition at 1 µM in data set [1] (setting [4]) was found to be 17.2%.
For the molecule `Cc1nc(OC2CCCC2)c(C)c(C)c1O` [Compound 28-5, 6-cyclopentyloxy-2,4,5-trimethylpyridin-3-ol], the inhibition at 1 µM in data set [1] (setting [4]) was determined as 28.8%.
As for `O=c1[nH]cc(F)c(=O)[nH]1` [5-Fluorouracil, reference compound], in data set [2], the viability at 48 h, 0.01 µM was found to be 85.5 ± 3.9%; the viability at 48 h, 0.1 µM stood at 77.6 ± 4.6%; the viability at 48 h, 1 µM came out at 61.9 ± 4.2%; the viability at 48 h, 10 µM amounted to 48.3 ± 2%. In data set [2], the viability at 48 h, 100 µM is 36 ± 2.5% and the IC50 at 48 h turned out to be 7.6 µM. In addition, in data set [3], the viability at 48 h, 0.01 µM is 93 ± 2.7%; the viability at 48 h, 0.1 µM amounted to 89.8 ± 2.7%; the viability at 48 h, 1 µM came to 75.7 ± 0.6%; the viability at 48 h, 10 µM stood at 71.3 ± 1.7%. In data set [3], the viability at 48 h, 100 µM stood at 59.7 ± 0.2% and the IC50 at 48 h is > 100 µM.
Consider `Nc1ccc(O)c(C(=O)O)c1` [Compound 5-ASA, 5-aminosalicylic acid, reference compound], for which the inhibition at 1 µM amounted to 3.8% in data set [1] (setting [4]) and 3.8% in data set [1] (1 μM, Table 8, read-out: 1 μM concentration inhibitory activity). In addition, the IC50 in data set [1] (HT-29/U937 adhesion, TNF-α-induced, read-out: IC50 (adhesion inhibition)) amounted to 18100 µM.
For the molecule `Cc1nc(O)c(C)c(C)c1O` [Compound 28-1, 3,4,6-Trimethylpyridine-2,5-diol], the inhibition at 1 µM in data set [1] (setting [4]) was ≥ 50%.
Still for that read-out and setting: the value for `CCCCCCCCOc1nc(C)c(O)c(C)c1C` [Compound 28-3, 2,4,5-Trimethyl-6-(octyloxy)pyridin-3-ol] was 30.4%; that for `Cc1ccc(NC(=S)Nc2nc(C)c(O)c(C)c2C)cc1` [Compound 18-5, 1-(5-hydroxy-3,4,6-trimethylpyridin-2-yl)-3-(p-tolyl)thiourea] was 19.2%.
